The record followed here is PubChem BioAssay AID1117344.

Active and inactive are the calls of the source. No rule for the calls is given here. A value given as a limit tells only on which side of the number the result lay.

The subject of the assay is NCI-H716 cells, GLP-1 secretion. Kind of assay: glucagon-like peptide 1 release potency, dose-response assay, half-maximal inhibitory concentration in NCI-H716 cell line (AID 1117344).

Turning to `Cc1ccc([N+](=O)[O-])[c]2c1[O][Hg]2`, the IC50 was 9.87 µM (inactive).

Consider `CC(=O)[O][Hg][c]1ccccc1`, for which the IC50 was 9.57 µM (inactive).

Regarding `CCCCCCCCCCCCCC[N+](C)(C)C`, the IC50 was 18.6 µM (inactive).

Consider `CCCCCCCCCCCC(=O)[O][Sn]([CH2]CCC)([CH2]CCC)[O]C(=O)CCCCCCCCCCC`, for which the IC50 was > 40 µM (inactive).

Take `OCCN1CCN(CC/C=C2/c3ccccc3Sc3ccc(C(F)(F)F)cc32)CC1`: the IC50 was 32.2 µM (inactive).
